# Measured values taken from a compilation of properties of binary mixtures (doi:10.1007/s10953-012-9875-7).
# Assay: xn = mol fraction of the nth substance listed
# Conditions: 101 kPa
structure (smiles),measurement,setting,value
O + CCCC[N+]1(C)CCCC1.N#C[S-],viscosity,"298.15 K, x1 = 1",0.89 mPa·s
same,viscosity,"308.15 K, x1 = 1",0.74 mPa·s
same,viscosity,"318.15 K, x1 = 1",0.63 mPa·s
same,viscosity,"328.15 K, x1 = 1",0.56 mPa·s
same,viscosity,"338.15 K, x1 = 1",0.5 mPa·s
same,viscosity,"348.15 K, x1 = 1",0.43 mPa·s
O + CCCC[N+]1(C)CCCCC1.N#C[S-],viscosity,"328.15 K, x1 = 1",0.56 mPa·s
same,viscosity,"338.15 K, x1 = 1",0.5 mPa·s
same,viscosity,"348.15 K, x1 = 1",0.43 mPa·s
O + CCCC[n+]1ccc(C)cc1.N#C[S-],viscosity,"298.15 K, x1 = 1",0.89 mPa·s
same,viscosity,"308.15 K, x1 = 1",0.74 mPa·s
same,viscosity,"318.15 K, x1 = 1",0.63 mPa·s
same,viscosity,"328.15 K, x1 = 1",0.56 mPa·s
same,viscosity,"338.15 K, x1 = 1",0.5 mPa·s
same,viscosity,"348.15 K, x1 = 1",0.43 mPa·s
O + CCCC[n+]1ccn(C)c1.N#C[S-],viscosity,"308.15 K, x1 = 1",0.74 mPa·s
same,viscosity,"318.15 K, x1 = 1",0.63 mPa·s
same,viscosity,"328.15 K, x1 = 1",0.56 mPa·s
same,viscosity,"348.15 K, x1 = 1",0.46 mPa·s
CCCC[N+]1(C)CCCC1.N#C[S-] + O,viscosity,"298.15 K, x2 = 0",109 mPa·s
same,viscosity,"298.15 K, x2 = 0.0853",92 mPa·s
same,viscosity,"298.15 K, x2 = 0.3555",49.3 mPa·s
same,viscosity,"298.15 K, x2 = 0.6634",17.6 mPa·s
same,viscosity,"298.15 K, x2 = 0.9657",1.74 mPa·s
same,viscosity,"308.15 K, x2 = 0",70.4 mPa·s
same,viscosity,"308.15 K, x2 = 0.0853",59.4 mPa·s
same,viscosity,"308.15 K, x2 = 0.2203",45.2 mPa·s
same,viscosity,"308.15 K, x2 = 0.3555",33.2 mPa·s
same,viscosity,"308.15 K, x2 = 0.783",7.27 mPa·s
same,viscosity,"318.15 K, x2 = 0",47.8 mPa·s
same,viscosity,"318.15 K, x2 = 0.0853",40.3 mPa·s
same,viscosity,"318.15 K, x2 = 0.3555",23.5 mPa·s
same,viscosity,"318.15 K, x2 = 0.5252",14.38 mPa·s
same,viscosity,"318.15 K, x2 = 0.6634",9.15 mPa·s
same,viscosity,"318.15 K, x2 = 0.783",5.46 mPa·s
same,viscosity,"328.15 K, x2 = 0",34.1 mPa·s
same,viscosity,"328.15 K, x2 = 0.2203",23 mPa·s
same,viscosity,"328.15 K, x2 = 0.3555",17.3 mPa·s
same,viscosity,"328.15 K, x2 = 0.5252",10.87 mPa·s
same,viscosity,"328.15 K, x2 = 0.6634",7.02 mPa·s
same,viscosity,"328.15 K, x2 = 0.8623",2.54 mPa·s
same,viscosity,"328.15 K, x2 = 0.9657",0.92 mPa·s
same,viscosity,"338.15 K, x2 = 0.0853",21.5 mPa·s
same,viscosity,"338.15 K, x2 = 0.3555",13.08 mPa·s
same,viscosity,"338.15 K, x2 = 0.5252",8.49 mPa·s
same,viscosity,"338.15 K, x2 = 0.6634",5.53 mPa·s
same,viscosity,"338.15 K, x2 = 0.8623",2.02 mPa·s
same,viscosity,"348.15 K, x2 = 0",19.3 mPa·s
same,viscosity,"348.15 K, x2 = 0.0853",16.5 mPa·s
same,viscosity,"348.15 K, x2 = 0.3555",10.21 mPa·s
same,viscosity,"348.15 K, x2 = 0.5252",6.81 mPa·s
same,viscosity,"348.15 K, x2 = 0.783",2.65 mPa·s
same,viscosity,"348.15 K, x2 = 0.8623",1.67 mPa·s
CCCC[N+]1(C)CCCCC1.N#C[S-] + O,viscosity,"318.15 K, x2 = 0",265 mPa·s
same,viscosity,"318.15 K, x2 = 0.2774",94.9 mPa·s
same,viscosity,"318.15 K, x2 = 0.5111",33 mPa·s
same,viscosity,"318.15 K, x2 = 0.6302",19.13 mPa·s
same,viscosity,"318.15 K, x2 = 0.7172",12.13 mPa·s
same,viscosity,"318.15 K, x2 = 0.8248",6.02 mPa·s
same,viscosity,"318.15 K, x2 = 0.9351",1.97 mPa·s
same,viscosity,"328.15 K, x2 = 0",152 mPa·s
same,viscosity,"328.15 K, x2 = 0.5111",22.33 mPa·s
same,viscosity,"328.15 K, x2 = 0.7172",8.79 mPa·s
same,viscosity,"328.15 K, x2 = 0.8248",4.47 mPa·s
same,viscosity,"328.15 K, x2 = 0.9351",1.57 mPa·s
same,viscosity,"338.15 K, x2 = 0",93.5 mPa·s
same,viscosity,"338.15 K, x2 = 0.3741",25.6 mPa·s
same,viscosity,"338.15 K, x2 = 0.5111",15.96 mPa·s
same,viscosity,"338.15 K, x2 = 0.6302",9.94 mPa·s
same,viscosity,"338.15 K, x2 = 0.7172",6.6 mPa·s
same,viscosity,"338.15 K, x2 = 0.8248",3.41 mPa·s
same,viscosity,"338.15 K, x2 = 0.9351",1.28 mPa·s
same,viscosity,"348.15 K, x2 = 0",60.5 mPa·s
same,viscosity,"348.15 K, x2 = 0.2774",27.83 mPa·s
same,viscosity,"348.15 K, x2 = 0.3741",18.51 mPa·s
same,viscosity,"348.15 K, x2 = 0.6302",7.6 mPa·s
same,viscosity,"348.15 K, x2 = 0.7172",5.08 mPa·s
same,viscosity,"348.15 K, x2 = 0.8248",2.71 mPa·s
same,viscosity,"348.15 K, x2 = 0.9351",1.07 mPa·s
